Laboratory results from patent US20070128217A1 (priority 2003, published 2007).

What was measured:
[1] = test system: antibodies in sera from SARS patients (sera 1a, 1b, 2, 6, 37, 62, London, SARS-yellow, SARS-green); format: binding, human; set-up: Binding of serum 6 to linear peptides of protein X1 of SARS-CoV Urbani / Binding of serum 37 to linear peptides of protein X1 of SARS-CoV Urbani / Binding of serum 6 to looped/cyclic peptide (PEPSCAN-ELISA) / Binding of serum 37 to looped/cyclic peptide (PEPSCAN-ELISA) / Binding of serum 37 to looped/cyclic peptides of protein X1 of SARS-CoV Urbani / Binding of serum 6 to linear peptides of protein X2 / Binding of serum 37 to linear peptides of protein X2 / Binding of serum 37 to looped/cyclic peptides of protein X2 of SARS-CoV Urbani / Binding of serum 6 to linear peptides of protein M of SARS-CoV Urbani / Binding of serum 37 to linear peptides of protein M of SARS-CoV Urbani / Binding of serum 6 to looped/cyclic peptides of protein M of SARS-CoV Urbani / Binding of serum 37 to looped/cyclic peptides of protein M of SARS-CoV Urbani / Binding of serum 6 to linear peptides of protein X3 of SARS-CoV Urbani / Binding of serum 37 to linear peptides of protein X3 of SARS-CoV Urbani / Binding of serum 37 to looped/cyclic peptides of protein X3 of SARS-CoV Urbani / Binding of serum 6 to linear peptides of protein X4 of SARS-CoV Urbani / Binding of serum 37 to linear peptides of protein X4 of SARS-CoV Urbani / Binding of serum 37 to looped/cyclic peptides of protein X4 of SARS-CoV Urbani / Binding of serum 6 to linear peptides of protein X5 of SARS-CoV Urbani / Binding of serum 37 to linear peptides of protein X5 of SARS-CoV Urbani / Binding of serum 37 to looped/cyclic peptides of protein X5 of SARS-CoV Urbani / Binding of serum 6 to linear peptides of protein N of SARS-CoV Urbani / Binding of serum 37 to linear peptides of protein N of SARS-CoV Urbani / Binding of serum 6 to linear peptide (PEPSCAN-ELISA) / Binding of serum 1a to looped/cyclic peptides of protein N of SARS-CoV Urbani / Binding of serum 1b to looped/cyclic peptides of protein N of SARS-CoV Urbani / Binding of serum 2 to looped/cyclic peptides of protein N of SARS-CoV Urbani / Binding of serum 6 to looped/cyclic peptides of protein N of SARS-CoV Urbani / Binding of serum 37 to looped/cyclic peptides of protein N of SARS-CoV Urbani / Binding of serum 62 to looped/cyclic peptides of protein N of SARS-CoV Urbani / Binding of serum London to looped/cyclic peptides of protein N of SARS-CoV Urbani / Binding of serum SARS-green to looped/cyclic peptides of protein N of SARS-CoV Urbani: unit not given here
[2] = test system: control sera (pooled serum of ten healthy LUMC hospital workers; commercial negative donor pooled serum from the Dutch bloodbank); format: binding, human; set-up: Binding of Control serum LUMC to linear peptides / Binding of Control serum Blood-bank to linear peptides / Binding of Control serum LUMC to looped peptides / Binding of Control Serum Blood-Bank to Looped peptides / Binding of Control serum LUMC to linear peptides of the protein M of SARS-CoV Urbani / Binding of Control serum Blood-bank to linear peptides of the protein M of SARS-CoV Urbani / Binding of Control serum LUMC to looped peptides of the protein M of SARS-CoV Urbani / Binding of Control Serum Blood-Bank to Looped peptides of the protein M of SARS-CoV Urbani: unit not given here
[3] = test system: recombinant human anti-SARS-CoV antibody 03-018; format: binding; set-up: Binding of antibody 03-018 to linear peptides of the N protein of SARS-CoV Urbani / Binding of antibody 03-018 to looped/cyclic peptides of the N protein of SARS-CoV Urbani: unit not given here
[4] = test system: rabbit serum obtained by immunizing a rabbit with the SARS-CoV strain Frankfurt 1; format: binding; set-up: Binding of a rabbit serum to linear peptides / Binding of a rabbit serum to looped peptides / Rabbit serum linear peptides / Rabbit serum looped peptides / Binding of a rabbit serum to linear peptides of protein N of SARS-CoV Urbani (Rabbit serum linear peptides) / Binding of a rabbit serum to looped/cyclic peptides of protein N of SARS-CoV Urbani (Rabbit serum looped peptides): unit not given here

Row | Sequence | Binding of serum 1a to linear peptides of protein N of SARS-CoV Urbani [1] | Binding of serum 1a to looped/cyclic peptides of protein N of SARS-CoV Urbani [1] | Binding of serum 1b to linear peptides of protein N of SARS-CoV Urbani [1] | Binding of serum 1b to looped/cyclic peptides of protein N of SARS-CoV Urbani [1] | Binding of serum 2 to linear peptides of protein N of SARS-CoV Urbani [1] | Binding of serum 2 to looped/cyclic peptides of protein N of SARS-CoV Urbani [1] | Binding of serum 6 to linear peptides of protein N of SARS-CoV Urbani [1] | Binding of serum 6 to looped/cyclic peptides of protein N of SARS-CoV Urbani [1] | Binding of serum 37 to linear peptides of protein N of SARS-CoV Urbani [1] | Binding of serum 37 to looped/cyclic peptides of protein N of SARS-CoV Urbani [1] | Binding of serum 62 to linear peptides of protein N of SARS-CoV Urbani [1] | Binding of serum 62 to looped/cyclic peptides of protein N of SARS-CoV Urbani [1] | Binding of serum London to linear peptides of protein N of SARS-CoV Urbani [1] | Binding of serum London to looped/cyclic peptides of protein N of SARS-CoV Urbani [1] | Binding of serum SARS-green to linear peptides of protein N of SARS-CoV Urbani [1] | Binding of serum SARS-yellow to linear peptides of protein N of SARS-CoV Urbani [1] | Binding of antibody 03-018 to linear peptides of the N protein of SARS-CoV Urbani [3] | Binding of antibody 03-018 to looped/cyclic peptides of the N protein of SARS-CoV Urbani [3] | Binding of a rabbit serum to linear peptides of protein N of SARS-CoV Urbani (Rabbit serum linear peptides) [4] | Binding of a rabbit serum to looped/cyclic peptides of protein N of SARS-CoV Urbani (Rabbit serum looped peptides) [4] | also measured
1 | LLNKHIDAYKTFPPT | 0.2 | 0.3 | 0.1 | 0.1 | 0.2 | 0.3 | 0.2 | 0.2 | 0.7 | 0.4 | 0.6 | 0.3 | 0.5 | 0.3 | 0.5 | 0.6 | 0.1 | 0.2 | 0.2 | 0.4 | Binding of serum SARS-green to looped/cyclic peptides of protein N of SARS-CoV Urbani [1]: 0.3; Binding of serum SARS-yellow to looped/cyclic peptides of protein N of SARS-CoV Urbani [1]: 0.4; Control Serum Blood-Bank Looped peptides [2]: 0.5; Control serum Blood-bank linear peptides [2]: 0.6; Control serum LUMC linear peptides [2]: 0.7; Control serum LUMC looped peptides [2]: 0.5
2 | LPQRQKKQPTVTLLP | 0.2 | – | 0.2 | – | 0.3 | – | 0.1 | – | 0.7 | – | 0.7 | – | 0.5 | – | 0.4 | 0.7 | 0.1 | 0.3 | 0.2 | 0.7 | Recognition of the peptide by sera of SARS-CoV infected individuals, and form (linear, looped/cyclic) in which it is recognized [1]: recognized in looped/cyclic form; Control Serum Blood-Bank Looped peptides [2]: 0.8; Control serum Blood-bank linear peptides [2]: 0.8; Control serum LUMC linear peptides [2]: 0.7; Control serum LUMC looped peptides [2]: 0.7
3 | LPYGANKEGIVWVAT | 0.2 | 0.5 | 0.2 | 0.3 | 0.3 | 0.6 | 0.2 | 0.4 | 0.7 | 0.9 | 0.7 | 0.8 | 0.5 | 0.5 | 0.3 | 0.6 | 0.1 | 0.2 | 0.2 | 0.6 | Binding of serum SARS-green to looped/cyclic peptides of protein N of SARS-CoV Urbani [1]: 0.4; Binding of serum SARS-yellow to looped/cyclic peptides of protein N of SARS-CoV Urbani [1]: 0.4; Binding of Control Serum Blood-Bank to Looped peptides [2]: 0.5; Binding of Control serum Blood-bank to linear peptides [2]: 0.7; Binding of Control serum LUMC to linear peptides [2]: 0.6; Binding of Control serum LUMC to looped peptides [2]: 0.6
4 | LTQHGKEELRFPRGQ | 0.2 | 0.4 | 0.1 | 0.2 | 0.3 | 0.4 | 0.2 | 0.3 | 0.6 | 0.6 | 0.7 | 0.4 | 0.4 | 0.4 | 0.3 | 0.6 | 0.1 | 0.2 | 0.1 | 0.4 | Binding of serum SARS-green to looped/cyclic peptides of protein N of SARS-CoV Urbani [1]: 0.3; Binding of serum SARS-yellow to looped/cyclic peptides of protein N of SARS-CoV Urbani [1]: 0.4; Binding of Control Serum Blood-Bank to Looped peptides [2]: 0.6; Binding of Control serum Blood-bank to linear peptides [2]: 0.8; Binding of Control serum LUMC to linear peptides [2]: 0.6; Binding of Control serum LUMC to looped peptides [2]: 0.6
5 | LTYHGAIKLDDKDPQ | 0.2 | 0.3 | 0.1 | 0.1 | 0.2 | 0.3 | 0.2 | 0.1 | 0.6 | 0.5 | 1.0 | 0.3 | 0.5 | 0.4 | 0.2 | 0.7 | 0.1 | 0.2 | 0.1 | 0.5 | Binding of serum SARS-green to looped/cyclic peptides of protein N of SARS-CoV Urbani [1]: 0.1; Binding of serum SARS-yellow to looped/cyclic peptides of protein N of SARS-CoV Urbani [1]: 0.4; Control Serum Blood-Bank Looped peptides [2]: 0.5; Control serum Blood-bank linear peptides [2]: 0.7; Control serum LUMC linear peptides [2]: 0.6; Control serum LUMC looped peptides [2]: 0.5
